Experiments:
[1] = biological target: T1, Human Factor XIIa (hFXIIa) (Homo sapiens, UniProt P00748); assay: Determination of Human Factor XIIa (hFXIIa) inhibition, fluorogenic substrate IC50 assay; assay type: biochemical; details: fluorogenic substrate H-DPro-Phe-Arg-AFC at Km, 25° C., read-out: Human FXIIa IC50
T1 construct: purchased Enzyme Research Laboratories
T1 sequence (P00748 373-615 limits assumed): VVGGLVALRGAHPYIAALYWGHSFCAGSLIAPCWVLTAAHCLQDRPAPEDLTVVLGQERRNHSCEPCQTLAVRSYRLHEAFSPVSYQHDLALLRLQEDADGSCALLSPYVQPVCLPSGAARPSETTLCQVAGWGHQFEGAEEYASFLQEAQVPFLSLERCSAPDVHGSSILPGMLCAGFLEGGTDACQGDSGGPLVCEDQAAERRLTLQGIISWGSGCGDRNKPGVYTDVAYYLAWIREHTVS
T1 sequence (P00748 20-372 partner limits assumed): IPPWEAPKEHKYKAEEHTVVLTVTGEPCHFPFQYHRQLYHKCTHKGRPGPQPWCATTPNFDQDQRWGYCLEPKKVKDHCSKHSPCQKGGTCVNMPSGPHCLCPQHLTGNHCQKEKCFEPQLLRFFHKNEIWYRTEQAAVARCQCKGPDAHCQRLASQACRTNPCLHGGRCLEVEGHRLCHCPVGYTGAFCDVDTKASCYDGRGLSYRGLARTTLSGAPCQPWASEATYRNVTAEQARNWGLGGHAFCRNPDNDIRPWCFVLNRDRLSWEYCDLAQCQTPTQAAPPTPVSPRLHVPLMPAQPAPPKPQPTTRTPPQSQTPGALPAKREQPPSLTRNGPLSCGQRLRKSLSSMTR
Experimental: Determination of Human Factor XIIa (hFXIIa) inhibition
The Km for the cleavage of the substrate by hFXIIa was determined by standard transformation of the Michaelis-Menten equation, with subsequent inhibition assays performed at substrate Km concentration.

FXa = FXa (Homo sapiens, UniProt P00742); assay: Related protease inhibition: FXa, fluorogenic substrate; assay type: biochemical; details: fluorogenic substrate at Km, 25° C.; H1-H3 = % activity at 40 μM
Sequence of FXa (P00742 235-488 limits assumed): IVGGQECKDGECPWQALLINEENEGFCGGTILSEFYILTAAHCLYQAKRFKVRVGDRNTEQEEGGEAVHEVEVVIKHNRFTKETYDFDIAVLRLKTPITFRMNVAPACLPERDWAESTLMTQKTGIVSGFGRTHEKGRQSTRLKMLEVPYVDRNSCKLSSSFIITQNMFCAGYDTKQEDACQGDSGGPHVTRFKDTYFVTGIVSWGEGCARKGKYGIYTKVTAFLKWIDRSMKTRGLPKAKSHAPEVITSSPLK
Sequence of FXa (P00742 41-179 partner limits assumed): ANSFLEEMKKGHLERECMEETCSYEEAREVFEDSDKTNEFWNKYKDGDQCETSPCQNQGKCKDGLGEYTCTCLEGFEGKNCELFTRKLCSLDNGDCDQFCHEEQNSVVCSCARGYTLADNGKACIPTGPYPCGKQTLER
Experimental: Human serine protease enzyme Plasma Kallikrein, KLK1, FXa, Plasmin, Thrombin and Trypsin were assayed for enzymatic activity using an appropriate fluorogenic substrate at Km concentration, FXIa at fixed substrate concentration of 100 μM and various concentrations of the test compound.

Row | Compound | IC50 [1] | IC50 (FXa)
1 | CNC(=O)c1nn(-c2cccc(Cl)c2)c2c1CCN(c1ccc3c(c1)C(=O)N(C)CC3)C2=O [Example 1334, 1-(3-chlorophenyl)-N-methyl-6-(2-methyl-1-oxo-1,2,3,4-tetrahydroisoquinolin-7-yl)-7-oxo-4,5,6,7-tetrahydro-1H-pyrazolo[3,4-c]pyridine-3-carboxamide] | 0.3 to 1 µM | > 40 µM
2 | Cc1nc2c(CNC(=O)C3CC3)nn(-c3cccc(Cl)c3)c2c(=O)n1-c1ccc2c(c1)CN(CCO)CC2 [Example 3008, N-((1-(3-chlorophenyl)-6-(2-(2-hydroxyethyl)-1,2,3,4-tetrahydroisoquinolin-7-yl)-5-methyl-7-oxo-6,7-dihydro-1H-pyrazolo[4,3-d]pyrimidin-3-yl)methyl)cyclopropanecarboxamide] | 0.3 to 1 µM | 3 to 10 µM
3 | O=C(OCc1ccccc1)c1nn(-c2cccc(Cl)c2)c2c1CCN(c1cccc(CN3CCCCC3)c1)C2=O [Example 1006, benzyl 1-(3-chlorophenyl)-7-oxo-6-(3-(piperidin-1-ylmethyl)phenyl)-4,5,6,7-tetrahydro-1H-pyrazolo[3,4-c]pyridine-3-carboxylate] | 0.3 to 1 µM | 10 to 40 µM
4 | CCNC(=O)c1nn(-c2cccc(Cl)c2)c2c1CCN(c1cccc(N3CCN(C)C3=O)c1)C2=O [Example 1364, 1-(3-chlorophenyl)-N-ethyl-6-(3-(3-methyl-2-oxoimidazolidin-1-yl)phenyl)-7-oxo-4,5,6,7-tetrahydro-1H-pyrazolo[3,4-c]pyridine-3-carboxamide] | 1 to 3 µM | > 40 µM
5 | CCNC(=O)c1nn(-c2cccc(Cl)c2)c2c1CCN(c1ccc3c(c1)C(=O)N(C)CC(=O)N3C)C2=O [Example 1375, 1-(3-chlorophenyl)-6-(1,4-dimethyl-2,5-dioxo-2,3,4,5-tetrahydro-1H-benzo[e][1,4]diazepin-7-yl)-N-ethyl-7-oxo-4,5,6,7-tetrahydro-1H-pyrazolo[3,4-c]pyridine-3-carboxamide] | 3 to 10 µM | > 40 µM
6 | CN1CCc2ccc(N3CCc4c(C(=O)NC(CO)C5CCOC5)nn(-c5cccc(Cl)c5)c4C3=O)cc2C1=O (stereo not drawn) [Example 1180, 1-(3-chlorophenyl)-N-(2-hydroxy-1-(tetrahydrofuran-3-yl)ethyl)-6-(2-methyl-1-oxo-1,2,3,4-tetrahydroisoquinolin-7-yl)-7-oxo-4,5,6,7-tetrahydro-1H-pyrazolo[3,4-c]pyridine-3-carboxamide] | 0.3 to 1 µM | > 40 µM
7 | CN1CCc2ccc(N3CCc4c(C(=O)N5CCCO5)nn(-c5cccc(Cl)c5)c4C3=O)cc2C1=O [Example 1343, 7-(1-(3-chlorophenyl)-3-(isoxazolidine-2-carbonyl)-7-oxo-1,4,5,7-tetrahydro-6H-pyrazolo[3,4-c]pyridin-6-yl)-2-methyl-3,4-dihydroisoquinolin-1(2H)-one] | 1 to 3 µM | 10 to 40 µM
8 | CC(=O)N1CCc2ccc(N3CCc4c(C(=O)NCc5cc(C)n(C)n5)nn(-c5cccc(Cl)c5)c4C3=O)cc21 [Example 1304, 6-(1-acetylindolin-6-yl)-1-(3-chlorophenyl)-N-((1,5-dimethyl-1H-pyrazol-3-yl)methyl)-7-oxo-4,5,6,7-tetrahydro-1H-pyrazolo[3,4-c]pyridine-3-carboxamide] | 0.3 to 1 µM | > 40 µM
9 | CCNC(=O)c1nn(-c2cccc(Cl)c2)c2c1CCN(c1ccc3c(c1)CN(C)CC3)C2=O [Example 1014, 1-(3-chlorophenyl)-N-ethyl-6-(2-methyl-1,2,3,4-tetrahydroisoquinolin-7-yl)-7-oxo-4,5,6,7-tetrahydro-1H-pyrazolo[3,4-c]pyridine-3-carboxamide] | 0.3 to 1 µM | 10 to 40 µM
10 | O=C(NC1CCCCC1)c1nn(-c2cccc(Cl)c2)c2c1CCN(c1cccc(CN3CCCCC3)c1)C2=O [Example 1010, 1-(3-chlorophenyl)-N-cyclohexyl-7-oxo-6-(3-(piperidin-1-ylmethyl)phenyl)-4,5,6,7-tetrahydro-1H-pyrazolo[3,4-c]pyridine-3-carboxamide] | 0.3 to 1 µM | > 100 µM
11 | CN1CCc2ccc(N3CCc4c(C(=O)NCC5(CO)COC5)nn(-c5cccc(Cl)c5)c4C3=O)cc2C1=O [Example 1252, 1-(3-chlorophenyl)-N-((3-(hydroxymethyl)oxetan-3-yl)methyl)-6-(2-methyl-1-oxo-1,2,3,4-tetrahydroisoquinolin-7-yl)-7-oxo-4,5,6,7-tetrahydro-1H-pyrazolo[3,4-c]pyridine-3-carboxamide] | 0.3 to 1 µM | > 40 µM
12 | CCNC(=O)c1nn(-c2cccc(Cl)c2C)c2c1CCN(c1ccc3c(c1)C(=O)N(C)CC3)C2=O [Example 2036, 1-(3-chloro-2-methylphenyl)-N-ethyl-6-(2-methyl-1-oxo-1,2,3,4-tetrahydroisoquinolin-7-yl)-7-oxo-4,5,6,7-tetrahydro-1H-pyrazolo[3,4-c]pyridine-3-carboxamide] | 1 to 3 µM | > 40 µM
13 | Cc1ccncc1COCc1nn(-c2cccc(Cl)c2)c2c1CCN(c1ccc3c(c1)C(=O)N(C)CC3)C2=O [Example 1356, 7-(1-(3-chlorophenyl)-3-(((4-methylpyridin-3-yl)methoxy)methyl)-7-oxo-1,4,5,7-tetrahydro-6H-pyrazolo[3,4-c]pyridin-6-yl)-2-methyl-3,4-dihydroisoquinolin-1(2H)-one] | 1 to 3 µM | 3 to 10 µM
14 | CC(=O)NCc1nn(-c2cccc(Cl)c2)c2c1CCN(c1ccc3c(c1)C(=O)N(C)CC3)C2=O [Example 1385, N-((1-(3-chlorophenyl)-6-(2-methyl-1-oxo-1,2,3,4-tetrahydroisoquinolin-7-yl)-7-oxo-4,5,6,7-tetrahydro-1H-pyrazolo[3,4-c]pyridin-3-yl)methyl)acetamide] | 1 to 3 µM | 3 to 10 µM
15 | CCNC(=O)c1nn(-c2cc(Cl)cc(CO)c2)c2c1CCN(c1ccc3c(c1)C(=O)N(C)CC3)C2=O [Example 2033, 1-(3-chloro-5-(hydroxymethyl)phenyl)-N-ethyl-6-(2-methyl-1-oxo-1,2,3,4-tetrahydroisoquinolin-7-yl)-7-oxo-4,5,6,7-tetrahydro-1H-pyrazolo[3,4-c]pyridine-3-carboxamide] | 0.3 to 1 µM | > 40 µM

Further lines, results first:

Row | IC50 [1] | IC50 (FXa) | Compound
16 | 0.1 to 0.3 µM | 10 to 40 µM | CN1CCc2ccc(N3CCc4c(C(=O)NCc5cccnc5)nn(-c5cccc(Cl)c5)c4C3=O)cc2C1 [Example 1015, 1-(3-chlorophenyl)-6-(2-methyl-1,2,3,4-tetrahydroisoquinolin-7-yl)-7-oxo-N-(pyridin-3-ylmethyl)-4,5,6,7-tetrahydro-1H-pyrazolo[3,4-c]pyridine-3-carboxamide]
17 | 0.01 to 0.1 µM | 3 to 10 µM | CCN1CCOc2ccc(N3CCc4c(C(=O)NCc5cnccc5C)nn(-c5cccc(Cl)c5)c4C3=O)cc2C1=O [Example 1318, 1-(3-chlorophenyl)-6-(4-ethyl-5-oxo-2,3,4,5-tetrahydrobenzo[f][1,4]oxazepin-7-yl)-N-((4-methylpyridin-3-yl)methyl)-7-oxo-4,5,6,7-tetrahydro-1H-pyrazolo[3,4-c]pyridine-3-carboxamide]
18 | 0.1 to 0.3 µM | > 40 µM | O=C(NCC1CC1)c1nn(-c2cccc(Cl)c2)c2c1CCN(c1cc3c(cc1F)CCN(CCO)C3)C2=O [Example 1123, 1-(3-chlorophenyl)-N-(cyclopropylmethyl)-6-(6-fluoro-2-(2-hydroxyethyl)-1,2,3,4-tetrahydroisoquinolin-7-yl)-7-oxo-4,5,6,7-tetrahydro-1H-pyrazolo[3,4-c]pyridine-3-carboxamide]
19 | 0.01 to 0.1 µM | 3 to 10 µM | CCN1Cc2cc(N3CCc4c(C(=O)NCC5CC5)nn(-c5cccc(Cl)c5)c4C3=O)ccc2C2(CC2)C1 [Example 1099, 1-(3-chlorophenyl)-N-(cyclopropylmethyl)-6-(2′-ethyl-2′,3′-dihydro-1′H-spiro[cyclopropane-1,4′-isoquinolin]-7′-yl)-7-oxo-4,5,6,7-tetrahydro-1H-pyrazolo[3,4-c]pyridine-3-carboxamide]
20 | 0.01 to 0.1 µM | 1 to 3 µM | Cc1cc(CNC(=O)c2nn(-c3cccc(Cl)c3)c3c2CCN(c2ccc4c(c2)C(=O)N(C)CCO4)C3=O)nn1C [Example 1319, 1-(3-chlorophenyl)-N-((1,5-dimethyl-1H-pyrazol-3-yl)methyl)-6-(4-methyl-5-oxo-2,3,4,5-tetrahydrobenzo[f][1,4]oxazepin-7-yl)-7-oxo-4,5,6,7-tetrahydro-1H-pyrazolo[3,4-c]pyridine-3-carboxamide]
21 | 0.1 to 0.3 µM | > 40 µM | CCN1CCc2ccc(N3CCc4c(C(=O)NCc5nn(C)cc5C)nn(-c5cccc(Cl)c5)c4C3=O)cc2C1=O [Example 1224, 1-(3-chlorophenyl)-N-((1,4-dimethyl-1H-pyrazol-3-yl)methyl)-6-(2-ethyl-1-oxo-1,2,3,4-tetrahydroisoquinolin-7-yl)-7-oxo-4,5,6,7-tetrahydro-1H-pyrazolo[3,4-c]pyridine-3-carboxamide]

From patent publication US20260132132A1, “3A,4,5,6-TETRAHYDRO-1 H-PYRAZOLO[3,4-C]PYRIDIN-7(7AH)-ONE DERIVATIVES AS FACTOR XIIA INHIBITORS” (KALVISTA PHARMACEUTICALS LIMITED, priority 2022, published 2026)
